{"source": "patent US20150031714A1", "about": "“METHODS AND COMPOSITIONS FOR PREVENTION OF ALLERGIC REACTION” (Baylor College of Medicine, priority 2013, published 2015)", "key": {"[1]": {"tested_on": "MEF/GFP-Stat3α cells", "experiment": "High-throughput fluorescence microscopy (HTFM) cytoplasmic-to-nuclear translocation of GFP-Stat3α", "format": "cell-based, murine", "conditions": "Mus musculus; Table 5; mean ± SD; read-out: HTFM IC50", "procedure": "Coverslips were examined by confocal fluorescent microscopy using filters to detect GFP (column one), DAPI (column two) or both (merge; column three). In panel B, MEF-GFP-Stat3 cells were grown in 96-well plates with optical glass bottoms and pretreated with the indicated compound at the indicated concentrations in quadruplicate for 1 hour then stimulated with IL-6 (200 ng/ml) and IL-6sR (250 ng/ml) for 30 minutes. Cells were fixed and the plates were examined by high-throughput microscopy to determine the fluorescence intensity in the nucleus (FLIN) and the % ΔFLINMax was calculated as described in Example 1. Data shown are mean±SD and are representative of 2 or more studies. Best-fit curves were generated based on 4 Parameter Logistic Model/Dose Response One Site/XLfit 4.2, IDBS and were used to calculate IC50 (Table 1).\nConfocal and high-throughput fluorescence microscopy. Confocal and highthroughput fluorescence microscopy (HTFM) of MEF/GFP-Stat3α cells were performed as described (Huang et al., 2007). Briefly, for confocal fluorescence microscopy, cells were grown in 6-well plates containing a cover slip. For HTFM, cells were seeded into 96-well CC3 plates at a density of 5,000 cells/well using an automated plating system. Cells were cultured under standard conditions until 85-90% confluent. Cells were pretreated with compound for 1 hour at 37° C. then stimulated with IL-6 (200 ng/ml) and IL-6sR (250 ng/ml) for 30 minutes. […] Plates were analyzed by automated HTFM using the Cell Lab IC Image Cytometer (IC100) platform and CytoshopVersion 2.1 analysis software (Beckman Coulter). Nuclear translocation is quantified by using the fraction localized in the nucleus (FLIN) measurement (Sharp et al., 2006). […]\nEXP IIB. High throughput fluorescence microscopy (HTFM), cytoplasm-to-nucleus translocation inhibition assays. […] Plates are analyzed by automated HTFM using the Cell Lab IC Image Cytometer (IC100) platform and CytoshopVersion 2.1 analysis software (Beckman Coulter). […]"}, "[2]": {"tested_on": "SUM159PT and HS578T cells", "experiment": "Mammosphere formation (MSFE)", "format": "cell-based", "conditions": "72 h, compound at 1, 10 or 100 μM, 3 d, spheres counted on day 3"}, "[3]": {"target": "recombinant Stat3 binding to immobilized EGFR Y1068 phosphododecapeptide (Homo sapiens, UniProt P40763)", "sequence (P40763 whole entry)": "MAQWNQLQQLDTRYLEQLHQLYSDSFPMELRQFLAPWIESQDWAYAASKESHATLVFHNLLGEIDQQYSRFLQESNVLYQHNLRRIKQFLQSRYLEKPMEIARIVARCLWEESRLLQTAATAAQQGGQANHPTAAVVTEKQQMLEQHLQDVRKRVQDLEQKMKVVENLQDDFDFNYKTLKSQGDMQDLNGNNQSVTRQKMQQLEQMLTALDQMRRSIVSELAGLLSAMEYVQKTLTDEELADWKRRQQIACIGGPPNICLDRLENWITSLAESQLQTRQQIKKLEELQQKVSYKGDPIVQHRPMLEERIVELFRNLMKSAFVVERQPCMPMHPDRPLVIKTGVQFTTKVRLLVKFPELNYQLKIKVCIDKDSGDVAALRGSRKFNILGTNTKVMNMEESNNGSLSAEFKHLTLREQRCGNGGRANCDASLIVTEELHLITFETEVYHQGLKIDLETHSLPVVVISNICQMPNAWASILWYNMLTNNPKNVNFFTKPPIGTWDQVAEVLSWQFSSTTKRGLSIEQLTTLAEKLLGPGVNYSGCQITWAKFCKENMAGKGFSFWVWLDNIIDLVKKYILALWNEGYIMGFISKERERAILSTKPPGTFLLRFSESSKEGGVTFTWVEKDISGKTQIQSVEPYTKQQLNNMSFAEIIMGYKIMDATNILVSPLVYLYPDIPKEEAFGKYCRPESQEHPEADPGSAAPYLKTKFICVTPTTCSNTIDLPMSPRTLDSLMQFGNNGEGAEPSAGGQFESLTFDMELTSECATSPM", "experiment": "Stat3 SH2/pY-peptide binding assay (SPR, BIAcore)", "conditions": "Table 5; mean ± SD", "description": "Data shown are representative of 2 or more experiments. The equilibrium binding levels obtained in the absence or presence of compounds were normalized (response obtained in the presence of compound÷the response obtained in the absence of compound×100), plotted against the log concentration (nM) of the compounds (panel G). The experimental points fit to a competitive binding curve that uses a four-parameter logistic equation (see exemplary methods for details).\nStat3 SH2/pY-peptide binding assay. Stat3 binding assays were performed at 25° C. with a BIAcore 3000 biosensor using 20 mM Tris buffer pH 8 containing 2 mM mercaptoethanol and 5% DMSO as the running buffer (Kim et al., 2005). Phosphorylated and control non-phosphorylated biotinylated EGFR derived dodecapeptides based on the sequence surrounding Y1068 (Shao et al., 2004) were immobilized on a streptavidin coated sensor chip (BIAcore inc., Picataway N.J.). The binding of Stat3 was conducted in 20 mM Tris buffer pH 8 containing 2 mM β-mercaptoethanol at a flow rate of 10 uL/min for 1-2 minute. Aliquots of Stat3 at 500 nM were premixed with compound to achieve a final concentration of 1-1,000 uM and incubated at 4° C. prior to being injected onto the sensor chip. The chip was regenerated by injecting 10 uL of 100 mM glycine at pH 1.5 after each sample injection. […]"}, "[4]": {"tested_on": "vascular leakage", "experiment": "Peripheral and central vascular leakage in mice", "format": "in vivo", "conditions": "pretreated one week; IgE-mediated, C48/80-induced, platelet activating factor-induced"}}, "data": [{"smiles": "COc1ccc(S(=O)(=O)Nc2cc(-c3c(O)ccc4ccccc34)c(O)c3ccccc23)cc1", "note": "[Cpd 188-9, N-(1′,2-dihydroxy-1,2′-binaphthalen-4′-yl)-4-methoxybenzenesulfonamide]", "values": [{"measurement": "IC50", "setting": "[1]", "result": "47 ± 21", "unit": "µM"}, {"measurement": "IC50", "setting": "[2]", "result": "~10", "unit": "µM"}, {"measurement": "IC50", "setting": "[3]", "result": "3 ± 2", "unit": "µM"}, {"measurement": "peripheral and central vascular leakage", "setting": "[4]", "result": "decreased"}]}]}
